Assay results reported in patent US10561608B2, “Dry powder Vancomycin compositions and associated methods” (SAVARA INC., priority 2011, dated 2020).
Structures can show the parent of a compound that is named as a salt.

How the values were obtained:
[1] = Reconstituted pH of powder; format: physicochemical; settings: effect of leucine concentration
Excerpt: In certain embodiments, the dry powder composition may be reconstituted and the resulting reconstituted powder may have a pH greater than 3.0, preferably greater than 3.5 and most preferably greater than 4.0.
In some embodiments, the delivery efficiency of dry powder vancomycin compositions may be improved through the addition of small amounts of leucine (FIG. 2). […] In addition, the addition of leucine results in powders with more physiologically acceptable pH values. See Table 1 below for the effect of leucine concentration on powder water content, particle size and reconstituted pH.

[2] = Single dose plasma pharmacokinetics in healthy volunteers; settings: human, in vivo, intravenous infusion 250 mg over 60 min, mean
Procedure: FIG. 11 is a graph depicting plasma concentrations as a function of time (semi-log) after a single dose administration of a vancomycin dry powder composition (Lot G-11-026-1) or intravenous administration of vancomycin (inhaled vancomycin dose 16 mg, circle; inhaled vancomycin dose 32 mg, triangle; inhaled vancomycin dose 80 mg, square; Intravenous infusion 250 mg over 60 min, circle with line).
In some embodiments, the dry powder vancomycin compositions of the present disclosure may provide an absolute bioavailability of 40% or more. Absolute bioavailability is calculated as AUC0-inf of vancomycin after the vancomycin composition administration divided by AUC0-inf of vancomycin after intravenous administration and adjusted for dose.
Following a single administration of a dry powder vancomycin composition (Lot […]) in eighteen healthy volunteers, a slow absorption phase followed by an elimination phase were observed. The main pharmacokinetic parameters after single dose administration of the inhaled vancomycin composition and intravenous vancomycin are shown in Table 7. AUC0-t refers to the area under the plasma concentration-time curve to the last measurable time point (24 h) calculated by the linear trapezoidal rule. AUC0-inf refers to the area under the concentration-time curve to infinity. Cmax refers to the maximum blood plasma concentration of vancomycin, and Tmax refers to the amount of time necessary to reach maximum blood plasma levels of vancomycin, and fin, refers to the elimination half-life associated with the terminal slope (Kel) of the semilogarithmic drug concentration-time curve, calculated as 0.693/Kel.

Compound	Reconstituted pH [1]	AUC(0-inf) [2] [ng·h/mL]	Cmax [2] [ng/mL]	Tmax [2] [h]	half-life [2] [h]	AUC(0-t) ([2]; t = 24 h) [ng·h/mL]
CN[C@H](CC(C)C)C(=O)N[C@H]1C(=O)N[C@@H](CC(N)=O)C(=O)N[C@H]2C(=O)N[C@H]3C(=O)N[C@H](C(=O)N[C@H](C(=O)O)c4cc(O)cc(O)c4-c4cc3ccc4O)[C@H](O)c3ccc(c(Cl)c3)Oc3cc2cc(c3OC2O[C@H](CO)[C@@H](O)[C@H](O)[C@H]2O[C@H]2C[C@](C)(N)[C@H](O)[C@H](C)O2)Oc2ccc(cc2Cl)[C@H]1O (stereo partly drawn) [API, Vancomycin hydrochloride]	3.0	–	–	–	–	–
CN[C@H](CC(C)C)C(=O)N[C@H]1C(=O)N[C@@H](CC(N)=O)C(=O)N[C@H]2C(=O)N[C@H]3C(=O)N[C@H](C(=O)N[C@H](C(=O)O)c4cc(O)cc(O)c4-c4cc3ccc4O)[C@H](O)c3ccc(c(Cl)c3)Oc3cc2cc(c3OC2O[C@H](CO)[C@@H](O)[C@H](O)[C@H]2O[C@H]2C[C@](C)(N)[C@H](O)[C@H](C)O2)Oc2ccc(cc2Cl)[C@H]1O (stereo partly drawn) [IV vancomycin, Vancomycin]	–	44400	10000	0.92	7.23	41000
